# Experimental data taken from ChEMBL document CHEMBL3853264 (Medchemcomm, 2016).
# Key:
# [1] = Intrinsic clearance in human liver microsomes; format: ADME; details: read-out: CLH
# [2] = Octanol-water partition co-efficient, log D of the compound by shake flask method; format: physicochemical
# [3] = target: T1, Solute carrier family 22 member 12 (Homo sapiens, UniProt Q96S37); assay: Inhibition of human C-terminal eGFP-tagged URAT1 long isoform expressed in CHO cells assessed as decrease in [14C]-uric acid uptake preincubated for 15 mins followed by [14C]-uric acid addition and incubated in dark for 3 hrs by scintillation counting method; format: cell-based
# T1 sequence (Q96S37 whole entry): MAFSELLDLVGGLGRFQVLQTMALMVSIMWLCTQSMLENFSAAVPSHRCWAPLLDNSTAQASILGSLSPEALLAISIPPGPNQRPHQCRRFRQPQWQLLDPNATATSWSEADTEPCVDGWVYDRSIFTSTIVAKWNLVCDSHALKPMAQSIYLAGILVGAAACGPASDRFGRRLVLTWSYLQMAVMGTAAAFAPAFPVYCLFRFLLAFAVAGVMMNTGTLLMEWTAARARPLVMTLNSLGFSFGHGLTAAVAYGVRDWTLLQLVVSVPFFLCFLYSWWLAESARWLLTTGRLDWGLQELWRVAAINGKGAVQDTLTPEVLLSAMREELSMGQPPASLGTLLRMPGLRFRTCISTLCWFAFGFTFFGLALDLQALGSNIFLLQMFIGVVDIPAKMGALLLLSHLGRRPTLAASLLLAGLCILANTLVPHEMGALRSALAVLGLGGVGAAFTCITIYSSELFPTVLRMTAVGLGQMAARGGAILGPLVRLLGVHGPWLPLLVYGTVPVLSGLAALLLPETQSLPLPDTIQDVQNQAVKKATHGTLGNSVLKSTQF
# [4] = target: T1, Solute carrier family 22 member 12; assay: Inhibition of URAT1 (unknown origin)
# [5] = Drug level in rat hepatocytes treated with 4-(3-chloro-4-(hydroxymethyl)phenoxy)-3-cyano-N-(5-fluoropyridin-2-yl)benzenesulfonamide; format: ADME, cell-based, Hepatocyte
microsomal CLint [1],IC50 [3],SMILES,also measured
< 8 µL/min/mg,–,N#Cc1ccc(Oc2ccc(S(=O)(=O)Nc3ccc(F)cn3)cc2C#N)c(Cl)c1,logD [2]: 1.9
< 8 µL/min/mg,–,N#Cc1ccc(Oc2ccc(S(=O)(=O)Nc3ccc(F)cn3)cc2C#N)cc1F,logD [2]: 1.4
163 µL/min/mg,–,N#Cc1cc(S(=O)(=O)Nc2ccc(F)cn2)ccc1Oc1ccc(F)c(Cl)c1,logD [2]: 2.3
–,115 nM,N#Cc1ccc(Oc2ccc(S(=O)(=O)Nc3ccccn3)cc2C#N)cc1Cl,–
–,1820 nM,N#Cc1ccc(Oc2ccc(S(=O)(=O)Nc3ncccn3)cc2C#N)cc1Cl,–
–,37 nM,N#Cc1ccc(Oc2ccc(S(=O)(=O)Nc3ccc(F)cn3)c(F)c2)cc1F,–

# The remaining lines, values behind:
SMILES,microsomal CLint [1],IC50 [3],also measured
N#Cc1ccc(Oc2ccc(S(=O)(=O)Nc3ccc(F)cn3)cc2C#N)cc1,< 8 µL/min/mg,–,–
N#Cc1cccc(Oc2ccc(S(=O)(=O)Nc3ccc(F)cn3)cc2C#N)c1,65 µL/min/mg,–,–
N#Cc1cc(Oc2ccc(S(=O)(=O)Nc3ccc(F)cn3)cc2C#N)ccc1F,83 µL/min/mg,–,logD [2]: 1.5
N#Cc1cc(Oc2ccc(S(=O)(=O)Nc3ccc(F)cn3)cc2C#N)ccc1Cl,134 µL/min/mg,–,logD [2]: 2
N#Cc1ccc(Oc2ccc(S(=O)(=O)Nc3ccncn3)cc2C#N)cc1Cl,–,5150 nM,–
N#Cc1ccc(Oc2ccc(S(=O)(=O)Nc3cccnc3)cc2C#N)cc1Cl,–,395 nM,–
N#Cc1ccc(Oc2ccc(S(=O)(=O)Nc3ccc(F)cn3)cc2F)cc1F,–,382 nM,–
CC(C)(Sc1ccncc1-c1ccc(C#N)c2ccccc12)C(=O)O,–,–,IC50 [4]: 23 nM
N#Cc1ccc(Oc2ccc(S(=O)(=O)Nc3ccc(F)cn3)cc2)cc1F,–,88 nM,–
N#Cc1cc(S(=O)(=O)Nc2ccc(F)cn2)ccc1Oc1ccc(CO[C@@H]2O[C@H](C(=O)O)[C@@H](O)[C@H](O)[C@H]2O)c(Cl)c1,–,–,Drug metabolism [5]: Metabolite_Detected
N#Cc1ccc(Oc2ccc(S(=O)(=O)Nc3ncns3)cc2C#N)cc1Cl,–,1120 nM,–
CC(C)OC(=O)C(C)(C)Oc1ccc(C(=O)c2ccc(Cl)cc2)cc1 [FENOFIBRATE],–,–,IC50 [4]: > 75000 nM
CC(C)(Oc1ccc(C(=O)c2ccc(Cl)cc2)cc1)C(=O)O [FENOFIBRIC ACID],–,–,IC50 [4]: 11000 nM
